Data from patent US9234186B2, “Star-worm luciferase” (OLYMPUS CORPORATION, priority 2011, dated 2016).
Like-named read-outs stand apart in the source and are kept apart here.

What was measured:
[1] = test system: CBR luciferase derived from click beetle; assay: Km determination for known luciferase CBR (luminescence kinetics); format: biochemical; conditions: 0.1 M Tris-HCl pH 8.0; enzyme solution with 1 mM D-luciferin, 8 mM MgSO4; read-out: Km for ATP
[2] = test system: Diplocladon sp. 1 star-worm luciferase, wild type, SEQ ID NO: 1; assay: Km determination for star-worm luciferase (luminescence kinetics); format: biochemical; conditions: 0.1 M Tris-HCl pH 8.0, 8 mM MgSO4
Procedure: The measurements were carried out ten times for each sample, and the average of absorbance was used for the calculation.
A solution of 0.1 M Tris-HCl (pH 8.0) containing each purified luciferase, 4 mM of ATP, and 8 mM of MgSO4 was connected to the standard pump of a luminometer, and measurement was carried out at the same time of adding 50 μl of the solution to the well. A Luminescensor (ATTO) was used for the measurement. Measurement was repeated three times for each luciferin concentration.
The peak intensity of the obtained photon count value was plotted with respect to luciferin concentration S, defining the initial rate as V. The plots were subjected to curve fitting of Michaelis Menten type, thereby giving Km values. The curve fitting was performed by a nonlinear least-squares method, and search of parameter was performed by a Newton method.
Measurement of Km Value with Respect to ATP
Under various ATP concentrations, the luminous intensity of the obtained luciferase was measured. Based on the results, Km values was determined with respect to ATP.
Various eight types of ATP solutions were prepared by adding ATP to 0.1 M Tris-HCl (pH 8.0). These solutions contain ATP at final concentration of 10, 20, 40, 80, 160, 320, 480, or 640 μM. These ATP solutions were each injected into a 96-well microplate at a volume of 50 μl. […]

HeLa cell = assay: Luminous intensity expressed in HeLa cell, star-worm luciferase vs P. pyralis luciferase (Example 3); format: cell-based; conditions: 2 mM D-luciferin, 25° C., 90 minutes, normalised to sea pansy luciferase internal control, codon-optimized gene with Kozak sequence
Procedure: The luminous intensities when expressed in a HeLa cell were compared between a star-worm luciferase and P. pyralis luciferase.
Regarding a star-worm luciferase, Kozak sequence was added to a nucleic acid optimized for expression in a mammalian cell and then inserted into between SgfI site and PmeI site of a multicloning site of pF9A CMV hRLuc neo Flexi vector (Promega). According to addition of Kozak sequence, an amino acid encoded by the codon immediately after initiation codon, proline, was changed to alanine. […] For the purpose of comparison, Kozak sequence was added to a known P. pyralis nucleic acid containing an optimized gene for expression in a mammalian cell, and then inserted into apF9A CMV hRLuc neo Flexi vector in a similar manner.
Each of the two types of plasmids obtained by the aforementioned manner was introduced into HeLa cells by means of lipofection method, and 24 hours later the cells were washed with PBS. […] According to the figure, the star-worm luciferase induced luminescence having 1.5 times the luminous intensity in a HeLa cell of that induced by P. Pyralis luciferase.

Which Km [1] does the source give for `Nc1ncnc2c1ncn2[C@@H]1O[C@H](COP(=O)(O)OP(=O)(O)OP(=O)(O)O)[C@@H](O)[C@H]1O` [ATP, Adenosine triphosphate] here?
Its Km is 47 µM.

What about the Km ([2]; enzyme solution with 1 mM D-luciferin, read-out: Km for ATP) of the same molecule?
The Km was 110 µM.

With `O=C(O)[C@H]1CSC(c2nc3ccc(O)cc3s2)=N1` [D-luciferin] as the molecule, how does the Km ([2]; read-out: Km for D-luciferin, enzyme solution with 4 mM ATP) read?
Its Km is 38.9 µM.

B1: star-worm luciferase: Novel luciferase cloned from star-worm Diplocladon sp. 1, amino acid sequence SEQ ID NO: 1 (protein, listed as Diplocladon sp.)
chain: MPNEIVLHGAKPRDPLDLGTAGSQLFRSLTQFSYLREALVDAHTEQVVSYADILENSCRLAICFEKYGLRQNSVIAVCSENSAIFFYPVIAALYMGIITATVNDNYTERELFDTLNISKPELVFCSKKAIKNLTQLKNHIDFIKKLVVLDSDEDIGEVESLANFMKRYSESVIDVRNFKPRDFDAKEQVALIMSSSGTTGLPKGVVLTHRNLSVRFVHCKDPLFGTRTVPSTSILSIVPFHHAFGMFTTLSYFIVGLRVILLKRFEEEFFLSTIEKYRIPTIVLAPPVMVFLAKSPLVDQYDVSSIREVATGGAPVGIEVAEAVAKRLKINGILQGYGLTETCCAVLITPHDHVKTGSTGKVAPYVQAKVVDLSTGKSLGPNKRGELCFKSEIIMKGYFNNIKATEEAIDKEGWLHSGDVGYYDEDGHFYVVDRLKELIKYKGYQVAPAELEWLLLQHPAIKDAGVTGVPDEAAGELPGACIVLEEGHSLTEQEVIEYVAERVSPTKRIRGGVVFVDDIPKGATGKLVRSELRRMLSQKKSKL
How did the “luminous intensity relative to that induced by P. pyralis firefly luciferase” value (HeLa cell) turn out when B1 was run?
The value was 1.5 times.
